In patent US12668600B2 (Kumquat Biosciences Inc., priority 2023, dated 2026):

What was measured:
Type in all cases: biochemical
KRAS WT = target: T1, KRAS WT (Homo sapiens, UniProt P01116); test: HTRF KRAS-SOS1 interaction assay, wildtype KRAS; conditions: binned ≤2 μM / >2 μM, read-out: Inhibition of KRAS WT (IC50)
T1 construct: made in house; host or cells: E. coli, e.g. BL21 (DE3)
Summary of the method: (§1)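 GST-KRAS + anti-GST-Eu; His-hSOS1 + anti-6His-XL665; cpd in DMSO, duplicate, 10–0.01 μM; ~10 min incubation; HTRF ex 337/em 620, 665 nm; IC50 fitted on 665/620 ratio.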

KRAS G12V = target: T2, KRAS G12V (Homo sapiens, UniProt P01116, G12V); test: HTRF KRAS-SOS1 interaction assay, KRAS G12V; conditions: binned ≤2 μM / >2 μM, read-out: Inhibition of KRAS G12V (IC50)
T2 construct: made in house; host or cells: E. coli, e.g. BL21 (DE3)
T2 sequence (P01116 1-188 isoform P01116-2 G12V): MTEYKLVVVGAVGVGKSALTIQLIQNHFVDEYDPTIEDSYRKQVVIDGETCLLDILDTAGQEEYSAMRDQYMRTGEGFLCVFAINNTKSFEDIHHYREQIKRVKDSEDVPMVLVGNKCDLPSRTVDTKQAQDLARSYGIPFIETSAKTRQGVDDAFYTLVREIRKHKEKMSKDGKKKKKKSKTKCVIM
Summary of the method: as §1

KRAS G12D = target: T3, KRAS G12D (Homo sapiens, UniProt P01116, G12D); test: HTRF KRAS-SOS1 interaction assay, KRAS G12D; conditions: binned ≤2 μM / >2 μM, read-out: Inhibition of KRAS G12D (IC50)
T3 construct: made in house; host or cells: E. coli, e.g. BL21 (DE3)
T3 sequence (P01116 1-188 isoform P01116-2 G12D): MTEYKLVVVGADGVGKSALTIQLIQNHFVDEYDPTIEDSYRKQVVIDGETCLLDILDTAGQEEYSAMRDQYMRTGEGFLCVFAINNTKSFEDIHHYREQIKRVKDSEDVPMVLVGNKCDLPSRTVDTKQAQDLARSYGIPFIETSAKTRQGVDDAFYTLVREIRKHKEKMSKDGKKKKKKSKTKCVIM
Summary of the method: as §1

KRAS G12S = target: T4, KRAS G12S (Homo sapiens, UniProt P01116, G12S); test: HTRF KRAS-SOS1 interaction assay, KRAS G12S; conditions: binned ≤2 μM / >2 μM, read-out: Inhibition of KRAS G12S (IC50)
T4 construct: made in house; host or cells: E. coli, e.g. BL21 (DE3)
T4 sequence (P01116 1-188 isoform P01116-2 G12S): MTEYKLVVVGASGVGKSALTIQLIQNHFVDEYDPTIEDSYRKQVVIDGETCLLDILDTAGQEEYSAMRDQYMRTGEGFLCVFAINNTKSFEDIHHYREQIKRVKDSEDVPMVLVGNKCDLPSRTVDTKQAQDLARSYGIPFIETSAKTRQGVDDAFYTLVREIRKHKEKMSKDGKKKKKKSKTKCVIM
Summary of the method: as §1

Measured: IC50

T1 sequence (P01116 1-188 isoform P01116-2): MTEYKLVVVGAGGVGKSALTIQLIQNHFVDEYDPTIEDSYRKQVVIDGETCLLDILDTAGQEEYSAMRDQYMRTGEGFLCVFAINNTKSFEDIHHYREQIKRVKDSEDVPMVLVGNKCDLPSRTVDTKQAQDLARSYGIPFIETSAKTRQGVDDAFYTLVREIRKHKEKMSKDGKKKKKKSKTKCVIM

C[C@H](c1cc(Cl)cnc1N)N1CCOc2c(C(F)(F)F)c(-c3ccc(F)c4sc(N)c(C#N)c34)c(F)c3nc(OCC4(CN5CCC6(CC5)CC6(F)F)CC4)nc1c23 [Compound 679, 2-amino-4-(4-((R)-1-(2-amino-5-chloropyridin-3-yl)ethyl)-2-((1-((1,1-difluoro-6-azaspiro[2.5]octan-6-yl)methyl)cyclopropyl)methoxy)-10-fluoro-8-(trifluoromethyl)-5,6-dihydro-4H-[1,4]oxazepino[5,6,7-de]quinazolin-9-yl)-7-fluorobenzo[b]thiophene-3-carbonitrile]
≤ 2 µM: all assays above

C[C@H](c1cccnc1N)N1CCOc2c(Cl)c(-c3ncc(F)c4sc(N)c(C#N)c34)c(F)c3nc(OC[C@@]45CCCN4C[C@H](F)C5)nc1c23 (single isomer, unassigned) [Compound 825]
≤ 2 µM: all assays above

C[C@H](c1cccnc1N)N1CCOc2c(C(F)(F)F)c(-c3ccc(F)c4sc(N)c(C#N)c34)c(F)c3nc(OC[C@@]45CCCN4CC(=C(F)F)C5)nc1c23 [Compound 856, 2-amino-4-(4-((R)-1-(2-aminopyridin-3-yl)ethyl)-2-(((S)-2-(difluoromethylene)tetrahydro-1H-pyrrolizin-7a(5H)-yl)methoxy)-10-fluoro-8-(trifluoromethyl)-5,6-dihydro-4H-[1,4]oxazepino[5,6,7-de]quinazolin-9-yl)-7-fluorobenzo[b]thiophene-3-carbonitrile]
≤ 2 µM: all assays above

N#Cc1c(N)sc2c(F)ccc(-c3c(C(F)(F)F)c4c5c(nc(OCC6(CN7CCC8(CC7)CC8(F)F)CC6)nc5c3F)N([C@H](CCC3CCOCC3)c3cccnc3N)CCO4)c12 [Compound 907, 2-amino-4-(4-((R)-1-(2-aminopyridin-3-yl)-3-(tetrahydro-2H-pyran-4-yl)propyl)-2-((1-((1,1-difluoro-6-azaspiro[2.5]octan-6-yl)methyl)cyclopropyl)methoxy)-10-fluoro-8-(trifluoromethyl)-5,6-dihydro-4H-[1,4]oxazepino[5,6,7-de]quinazolin-9-yl)-7-fluorobenzo[b]thiophene-3-carbonitrile]
≤ 2 µM: all assays above

CC(c1cccnc1N)N1c2nc(OC[C@@]34CCCN3C[C@H](F)C4)nc3c(F)c(-c4ccc(F)c5sc(N)c(C#N)c45)c(Cl)c(c23)OC[C@@H]1C(F)F (mixture of isomers) [Compound 790, 2-amino-4-((5R)-4-(1-(2-aminopyridin-3-yl)ethyl)-8-chloro-5-(difluoromethyl)-10-fluoro-2-(((2R,7aS)-2-fluorotetrahydro-1H-pyrrolizin-7a(5H)-yl)methoxy)-5,6-dihydro-4H-[1,4]oxazepino[5,6,7-de]quinazolin-9-yl)-7-fluorobenzo[b]thiophene-3-carbonitrile]
≤ 2 µM: all assays above

C#Cc1c(F)ccc2cc(O)cc(-c3nc4c5c(nc(OC[C@@H]6CCCN6C)nc5c3F)N(C(C)c3cccnc3N)CCO4)c12 (single isomer, unassigned) [Compound 728]
≤ 2 µM: all assays above

C[C@H](c1cccnc1N)N1CCOc2c(C(F)(F)F)c(-c3ccc(F)c4sc(N)c(C#N)c34)c(F)c3nc(OCC4(CN5CCC(=C(F)F)CC5)CC4)nc1c23 (single isomer, unassigned) [Compound 693]
≤ 2 µM: all assays above

C[C@H](c1cncnc1N)N1CCOc2c(C(F)(F)F)c(-c3ccc(F)c4sc(N)c(C#N)c34)c(F)c3nc(OCC4(CN5CCC(F)CC5)CC4)nc1c23 [Compound 908, 2-amino-4-(4-((R)-1-(4-aminopyrimidin-5-yl)ethyl)-10-fluoro-2-((1-((4-fluoropiperidin-1-yl)methyl)cyclopropyl)methoxy)-8-(trifluoromethyl)-5,6-dihydro-4H-[1,4]oxazepino[5,6,7-de]quinazolin-9-yl)-7-fluorobenzo[b]thiophene-3-carbonitrile]
≤ 2 µM: all assays above
